Experimental data as given in BindingDB's records for doi:10.7270/Q2805129 (Vanderbilt Screening Center For Gpcrs, Ion Channels and …, 2009).

Molecular target: T1, Muscarinic acetylcholine receptor M5 (Homo sapiens, UniProt P08912)
T1 sequence (P08912 whole entry): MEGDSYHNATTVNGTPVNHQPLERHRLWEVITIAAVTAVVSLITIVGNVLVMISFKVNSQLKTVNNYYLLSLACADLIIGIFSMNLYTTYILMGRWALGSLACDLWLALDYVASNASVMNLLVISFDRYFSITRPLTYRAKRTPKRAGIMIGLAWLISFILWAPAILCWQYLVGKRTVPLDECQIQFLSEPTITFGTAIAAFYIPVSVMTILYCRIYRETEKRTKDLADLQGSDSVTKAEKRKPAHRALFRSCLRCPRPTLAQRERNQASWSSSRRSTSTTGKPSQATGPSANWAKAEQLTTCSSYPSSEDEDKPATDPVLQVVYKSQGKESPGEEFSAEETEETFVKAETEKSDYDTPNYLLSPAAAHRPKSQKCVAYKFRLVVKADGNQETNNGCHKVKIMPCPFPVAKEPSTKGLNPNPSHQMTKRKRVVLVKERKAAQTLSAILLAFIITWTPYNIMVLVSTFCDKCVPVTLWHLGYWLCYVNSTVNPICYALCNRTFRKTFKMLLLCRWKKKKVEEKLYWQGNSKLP
Experiment: compound effect on ACh competition at M5, biochemical, [3H]N-methylscopolamine, acetylcholine (AID 2194)

SMILES: COc1ccc(CN2C(=O)C(=O)c3cc(OC(F)(F)F)ccc32)cc1 [VU0238429]
- Ki: 159 nM
